Test results: PubChem BioAssay AID256 (DTP/NCI, 2004)
Several values for one entry are separate records, joined by “and”; a condition that tells them apart may be missing. Identical values can stand only once. Toxic doses and inconclusive results are not listed. The calls were made as follows: active = survival T/C of 150% or more; inactive = T/C below 125% in these data.

System: CD2F1 mice, L1210 leukemia ip, survival T/C
Test: NCI In Vivo Anticancer Drug Screen. Data for tumor model L1210 Leukemia (intraperitoneal) in CD2F1 (CDF1) mice
Settings: higher = longer survival
Outline: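 Mice carrying a transplanted tumor received test compound or vehicle alone. The value is the measurement in the treated group divided by that in the vehicle-treated control group.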

[1] = endpoint: mean survival time, dose: 100.0 mg/kg/injection, schedule: Q04DX003 (ip), vehicle: saline with Tween-80
[2] = endpoint: mean survival time, dose: 200.0 mg/kg/injection, schedule: Q04DX003 (ip), vehicle: saline with Tween-80
[3] = endpoint: mean survival time, dose: 400.0 mg/kg/injection, schedule: Q04DX003 (ip), vehicle: saline with Tween-80
[4] = endpoint: mean survival time, dose: 75.0 mg/kg/injection, schedule: Q01DX001 (ip), vehicle: saline
[5] = endpoint: mean survival time, dose: 150.0 mg/kg/injection, schedule: Q01DX001 (ip), vehicle: saline
[6] = endpoint: mean survival time, dose: 300.0 mg/kg/injection, schedule: Q01DX001 (ip), vehicle: saline

Measured: T/C

O=[N+]([O-])c1ccccc1-c1n[nH]c2ccccc12
inactive: endpoint: mean survival time, dose: 25.0 mg/kg/injection, schedule: Q04DX002 (ip), vehicle: saline with Tween-80 113 % of control | endpoint: mean survival time, dose: 50.0 mg/kg/injection, schedule: Q04DX002 (ip), vehicle: saline with Tween-80 106 % of control | endpoint: mean survival time, dose: 100.0 mg/kg/injection, schedule: Q04DX002 (ip), vehicle: saline with Tween-80 106 % of control | endpoint: mean survival time, dose: 200.0 mg/kg/injection, schedule: Q04DX002 (ip), vehicle: saline with Tween-80 110 % of control

N#CCc1ccccc1
inactive: endpoint: mean survival time, dose: 10.0 mg/kg/injection, schedule: Q01DX001 (ip), vehicle: saline 105 % of control | endpoint: mean survival time, dose: 20.0 mg/kg/injection, schedule: Q01DX001 (ip), vehicle: saline 105 % of control

Cc1[nH]c(=O)c(C(=O)O)c(C)c1[N+](=O)[O-]
inactive: [1] 96 % of control | [2] 94 % of control | [3] 96 % of control

O=C1CC2OCC=C3CN4CCC5(C(=O)O)C(N1)C2C3CC45 (configuration not stated)
inactive: [4] 106 % of control | [5] 100 % of control | [6] 100 % of control

NC(=O)CC=O
inactive: [4] 98 % of control | [5] 93 % of control | [6] 95 % of control

Cc1ccc(S(=O)(=O)N(C)C)cc1NC1=NCCO1
inactive: endpoint: mean survival time, dose: 50.0 mg/kg/injection, schedule: Q04DX003 (ip), vehicle: saline with Tween-80 95 % of control | [1] 95 % of control | [2] 90 % of control | [3] 90 % of control

CC1=CC(=O)C(C(=O)CC(O)(C(F)(F)F)C(F)(F)F)C(=O)O1 (configuration not stated)
inactive: endpoint: mean survival time, dose: 100.0 mg/kg/injection, schedule: Q01DX001 (ip), vehicle: saline with Tween-80 98 % of control | endpoint: mean survival time, dose: 200.0 mg/kg/injection, schedule: Q01DX001 (ip), vehicle: saline with Tween-80 104 % of control | endpoint: mean survival time, dose: 400.0 mg/kg/injection, schedule: Q01DX001 (ip), vehicle: saline with Tween-80 95 % of control

COc1cccc(CO)c1Oc1ccc(C)cc1
inactive: endpoint: mean survival time, dose: 100.0 mg/kg/injection, schedule: Q01DX001 (ip), vehicle: saline 102 % of control | endpoint: mean survival time, dose: 100.0 mg/kg/injection, schedule: Q04DX003 (ip), vehicle: saline 89 % of control | endpoint: mean survival time, dose: 200.0 mg/kg/injection, schedule: Q01DX001 (ip), vehicle: saline 105 % of control | endpoint: mean survival time, dose: 200.0 mg/kg/injection, schedule: Q04DX003 (ip), vehicle: saline 89 % of control | endpoint: mean survival time, dose: 400.0 mg/kg/injection, schedule: Q01DX001 (ip), vehicle: saline 100 % of control | endpoint: mean survival time, dose: 400.0 mg/kg/injection, schedule: Q04DX003 (ip), vehicle: saline 89 % of control

CC(C)CCCC(C)C1CCC2C3CC=C4CC(C(=O)O)CCC4C3CCC12C (configuration not stated)
inactive: [1] 92 % of control | [2] 88 % of control | [3] 88 % of control

CN(C)C(c1ccccc1)C(O)c1ccccc1 (configuration not stated)
inactive: [4] 103 % of control | [5] 97 % of control

Cc1cc(O)c2c(c1O)C(=O)C13C(=C2O)C(=O)C2C(O)C1C1C(O)C3C(=O)C3=C(O)c4c(O)cc(C)c(O)c4C(=O)C321 (configuration not stated)
inactive: endpoint: mean survival time, dose: 6.25 mg/kg/injection, schedule: Q04DX003 (ip), vehicle: saline with Tween-80 102 % of control | endpoint: mean survival time, dose: 12.5 mg/kg/injection, schedule: Q04DX003 (ip), vehicle: saline with Tween-80 107 % of control | endpoint: mean survival time, dose: 25.0 mg/kg/injection, schedule: Q04DX003 (ip), vehicle: saline with Tween-80 93 % of control | endpoint: median survival time, dose: 0.78 mg/kg/injection, schedule: Q01DX009 (ip), vehicle: saline with Tween-80 111 % of control | endpoint: median survival time, dose: 1.56 mg/kg/injection, schedule: Q01DX009 (ip), vehicle: saline with Tween-80 109 % of control | endpoint: median survival time, dose: 3.12 mg/kg/injection, schedule: Q01DX009 (ip), vehicle: saline with Tween-80 97 % of control and 102 % of control

CC(C)(C)c1cc2c3c(c1)Oc1cc(C(C)(C)C)cc4c1C3(O)c1c(cc(C(C)(C)C)cc1O4)O2
inactive: endpoint: median survival time, dose: 3.12 mg/kg/injection, schedule: Q01DX009 (ip), vehicle: Klucel (hydroxypropylcellulose) (HPC) 107 % of control | endpoint: median survival time, dose: 6.25 mg/kg/injection, schedule: Q01DX009 (ip), vehicle: Klucel (hydroxypropylcellulose) (HPC) 112 % of control | endpoint: median survival time, dose: 12.5 mg/kg/injection, schedule: Q01DX009 (ip), vehicle: Klucel (hydroxypropylcellulose) (HPC) 104 % of control
